Assay results published in US11407719B2, “Anti-inflammatory agents” (Resverlogix Corp., priority 2009, dated 2022).

What was measured:
[1] = tested on: hIL-6 mRNA; assay: Quantification of hIL-6 mRNA; format: cell-based, human; design: key: Active: an active compound is one that causes a ≥20% inhibition in IL-6 mRNA at a concentration less than or equal to 10 μM; settings: IL-6 mRNA by real-time PCR; differentiated U937 cells, 1 h pretreatment, lipopolysaccharide stimulation 3 h; concentration ≤10 μM
Experimental: In this example, […] in tissue culture cells was quantitated to measure the transcriptional inhibition of hIL-6 when treated with a compound of the invention.
A human leukemic monocyte lymphoma cell line (U937) was plated (3.2×10^5 cells per well) in a 96-well plate in 100 μL RPMI-1640, and differentiated for 3 days prior to the addition of the compound of interest. The cells were pretreated for 1 h with the test compound prior to stimulation with lipolysaccharide from Escherichia coli. The cells were incubated at 37° C. for 3 h before the cells were harvested. At time of harvest, the spent media was removed from the cells and the cells were rinsed in 200 μL PBS. Cell lysis solution (70 μL) was added the cells in each well and incubated for 5-10 min at room temperature, to allow for complete cell lysis and detachment. mRNA was then prepared using the “mRNA Catcher PLUS plate” (Invitrogen), according to the protocol supplied. After the last wash, as much wash buffer as possible was aspirated without allowing the wells to dry. Elution buffer (E3, 70 μL) was then added to each well. mRNA was then eluted by incubating the mRNA Catcher PLUS plate with Elution Buffer for 5 min at 68° C. and then immediately placing the plate on ice.
The eluted mRNA isolated was then used in a one-step quantitative real-time PCR reaction, using components of the Ultra Sense Kit together with Applied Biosystems primer-probe mixes. Real-time PCR data was analyzed, normalizing the Ct values for hIL-6 to an internal control, prior to determining the fold induction of each unknown sample, relative to the control.

[2] = tested on: VCAM-1 mRNA; assay: Quantification of hVCAM mRNA; format: cell-based, human; design: key: Active: an active compound is one that causes a ≥20% inhibition in VCAM-1 mRNA at a concentration less than or equal to 10 μM; -1 mRNA at a concentration less than or equal to 10 μM; settings: VCAM-1 mRNA by real-time PCR; HUVECs, 1 h pretreatment, tumor necrosis factor-α stimulation 24 h; concentration ≤10 μM
Experimental: In this example, […] in tissue culture cells was quantitated to measure the transcriptional inhibition of hVCAM when treated with a compound of the invention.
Human umbilical vein endothelial cells (HUVECs) were plated in a 96-well plate (4.0×10^3 cells/well) in 100 μL EGM media and incubated for 24 h prior to the addition of the compound of interest. The cells were pretreated for 1 h with the test compound prior to stimulation with tumor necrosis factor-α. The cells were incubated for an additional 24 h before the cells were harvested. At time of harvest, the spent media was removed from the HUVECs and rinsed in 200 μL PBS. Cell lysis solution (70 μL) was then added the cells in each well and incubated for ˜5-10 min at room temperature, to allow for complete cell lysis and detachment. mRNA was then prepared using the “mRNA Catcher PLUS plate” (Invitrogen), according to the protocol supplied. After the last wash, as much wash buffer as possible was aspirated without allowing the wells to dry. Elution buffer (E3, 70 μL) was then added to each well. mRNA was then eluted by incubating the mRNA Catcher PLUS plate with elution buffer for 5 min at 68° C. and then immediately placing the plate on ice.
The eluted mRNA so isolated was then used in a one-step quantitative real-time PCR reaction, using components of the Ultra Sense Kit together with Applied Biosystems primer-probe mixes. Real-time PCR data was analyzed, normalizing the Ct values for hVCAM to an internal control, prior to determining the fold induction of each unknown sample, relative to the control.

Compound: COc1cc(OC)c2c(=O)[nH]c(-c3ccc(Nc4cccnc4)cc3)nc2c1 [5,7-Dimethoxy-2-(4-(pyridin-3-ylamino)phenyl)quinazolin-4(3H)-one]
- Inhibition of IL-6 expression [1]: Active
- Inhibition of VCAM-1 expression [2]: Active

Compound: COc1cc(OC)c2c(=O)[nH]c(-c3ccc(N4CCN(C(=O)c5cnn(C)c5Cl)CC4)cc3)nc2c1 [2-(4-(4-(5-Chloro-1-methyl-1H-pyrazole-4-carbonyl)piperazin-1-yl)phenyl)-5,7-dimethoxyquinazolin-4(3H)-one]
- Inhibition of IL-6 expression [1]: Active
- Inhibition of VCAM-1 expression [2]: Active

Compound: COc1cc(OC)c2c(=O)[nH]c(-c3ccc(N4CCN(C(C)C)CC4)cc3)nc2c1 [2-(4-(4-Isopropylpiperazin-1-yl)phenyl)-5,7-dimethoxyquinazolin-4(3H)-one]
- Inhibition of IL-6 expression [1]: Active
- Inhibition of VCAM-1 expression [2]: Active

Compound: COc1cc(OC)c2c(=O)[nH]c(-c3ccc4[nH]c(CN5CCCC5)cc4c3)nc2c1 [5,7-Dimethoxy-2-(2-(pyrrolidin-1-ylmethyl)-1H-indol-5-yl)quinazolin-4(3H)-one]
- Inhibition of IL-6 expression [1]: Active
- Inhibition of VCAM-1 expression [2]: Active

Compound: Cc1cc(-c2nc3cc(F)cc(N4CCCC4)c3c(=O)[nH]2)cc(C)c1OCCN1CCCC1 [2-(3,5-Dimethyl-4-(2-(pyrrolidin-1-yl)ethoxy)phenyl)-7-fluoro-5-(pyrrolidin-1-yl)quinazolin-4(3H)-one]
- Inhibition of IL-6 expression [1]: Active
- Inhibition of VCAM-1 expression [2]: Active

Compound: COc1cc(OC)c2c(=O)[nH]c(-c3cc(C)c(OCCN4CCCCC4)c(C)c3)nc2c1 [2-(3,5-Dimethyl-4-(2-(piperidin-1-yl)ethoxy)phenyl)-5,7-dimethoxyquinazolin-4(3H)-one]
- Inhibition of IL-6 expression [1]: Active
- Inhibition of VCAM-1 expression [2]: Active

Compound: COc1cc(OC)c2c(=O)[nH]c(-c3ccc(N4CCC(NC(=O)c5ccccc5)CC4)cc3)nc2c1 [N-(1-(4-(5,7-Dimethoxy-4-oxo-3,4-dihydroquinazolin-2-yl)phenyl)piperidin-4-yl)benzamide]
- Inhibition of IL-6 expression [1]: Active
- Inhibition of VCAM-1 expression [2]: Active

Compound: CCCCN1CCN(c2ccc(-c3nc4cc(OC)cc(OC)c4c(=O)[nH]3)cc2)CC1 [2-(4-(4-butylpiperazin-1-yl)phenyl)-5,7-dimethoxyquinazolin-4(3H)-one]
- Inhibition of IL-6 expression [1]: Active
- Inhibition of VCAM-1 expression [2]: Active

Compound: COc1cc(OC)c2c(=O)[nH]c(-c3ccc(N4CCN(C(C)=O)C(C)C4)cc3)nc2c1 (centres unmarked) [2-(4-(4-Acetyl-3-methylpiperazin-1-yl)phenyl)-5,7-dimethoxyquinazolin-4(3H)-one]
- Inhibition of IL-6 expression [1]: Active
- Inhibition of VCAM-1 expression [2]: Active

Compound: COc1cc(OC)c2c(=O)[nH]c(-c3ccc(N4CCC(NC(C)=O)CC4)cc3)nc2c1 [N-(1-(4-(5,7-Dimethoxy-4-oxo-3,4-dihydroquinazolin-2-yl)phenyl)piperidin-4-yl)acetamide]
- Inhibition of IL-6 expression [1]: Active
- Inhibition of VCAM-1 expression [2]: Active

Compound: COc1cc(OC)c2c(=O)[nH]c(-c3cc(C)c(OCCN4C(=O)c5ccccc5C4=O)c(C)c3)nc2c1 [2-(2-(4-(5,7-dimethoxy-4-oxo-3,4-dihydroquinazolin-2-yl)-2,6-dimethylphenoxy)ethyl)isoindoline-1,3-dione]
- Inhibition of IL-6 expression [1]: Active
- Inhibition of VCAM-1 expression [2]: Active

Compound: COc1cc(OC)c2c(=O)[nH]c(-c3ccc4[nH]c(CO)cc4c3)nc2c1 [2-(2-(Hydroxymethyl)-1H-indol-5-yl)-5,7-dimethoxyquinazolin-4(3H)-one]
- Inhibition of IL-6 expression [1]: Active

Compound: COc1cc(OC)c2c(=O)[nH]c(-c3ccc(N4CCC(NCc5ccccc5)CC4)nc3)nc2c1 [2-(6-(4-(Benzylamino)piperidin-1-yl)pyridin-3-yl)-5,7-dimethoxyquinazolin-4(3H)-one]
- Inhibition of IL-6 expression [1]: Active

Compound: COc1cc(OC)c2c(=O)[nH]c(-c3ccc(N4CCC(NC(C)C)CC4)cc3)nc2c1 [2-(4-(4-(Isopropylamino)piperidin-1-yl)phenyl)-5,7-dimethoxyquinazolin-4(3H)-one]
- Inhibition of IL-6 expression [1]: Active

Compound: COc1cc(OC)c2c(=O)[nH]c(-c3cc(C)c(OCCN4C(=O)c5ccccc5C4=O)c(C)c3)cc2c1 [2-(2-(4-(6,8-Dimethoxy-1-oxo-1,2-dihydroisoquinolin-3-yl)-2,6-dimethylphenoxy)ethyl)isoindoline-1,3-dione]
- Inhibition of IL-6 expression [1]: Active

Compound: CNC1CCN(c2ccc(-c3nc4cc(OC)cc(OC)c4c(=O)[nH]3)cc2)C1 (centres unmarked) [5,7-Dimethoxy-2-(4-(3-(methylamino)pyrrolidin-1-yl)phenyl)quinazolin-4(3H)-one]
- Inhibition of IL-6 expression [1]: Active

Compound: COc1cc(OC)c2c(=O)[nH]c(-c3ccc(N4CCN(Cc5ccc(F)cc5)CC4)cc3)nc2c1 [2-(4-(4-(4-Fluorobenzyl)piperazin-1-yl)phenyl)-5,7-dimethoxyquinazolin-4(3H)-one]
- Inhibition of IL-6 expression [1]: Active

Compound: CC(C)N1CCN(c2ccc(-c3nc4cccc(Cl)c4c(=O)[nH]3)cc2)CC1 [5-Chloro-2-(4-(4-isopropylpiperazin-1-yl)phenyl)quinazolin-4(3H)-one]
- Inhibition of IL-6 expression [1]: Active

Compound: COc1cc(OC)c2c(=O)[nH]c(-c3ccc(N4CCC(=O)CC4)cc3)nc2n1 [5,7-Dimethoxy-2-(4-(4-oxopiperidin-1-yl)phenyl)pyrido[2,3-d]pyrimidin-4(3H)-one]
- Inhibition of IL-6 expression [1]: Active

Compound: COc1cc(OC)c2c(=O)[nH]c(-c3ccc(N4CCC(N(Cc5ccccc5)C(C)=O)CC4)nc3)nc2c1 [N-Benzyl-N-(1-(5-(5,7-dimethoxy-4-oxo-3,4-dihydroquinazolin-2-yl)pyridin-2-yl)piperidin-4-yl)acetamide]
- Inhibition of IL-6 expression [1]: Active

Compound: COc1cc(OC)c2c(=O)[nH]c(-c3ccc(NS(C)(=O)=O)cc3)nc2c1 [N-(4-(5,7-Dimethoxy-4-oxo-3,4-dihydroquinazolin-2-yl)phenyl)methanesulfonamide]
- Inhibition of IL-6 expression [1]: Active

Compound: COc1cc(OC)c2c(=O)[nH]c(-c3ccc(N(CCO)CCO)cc3)nc2n1 [2-(4-(bis(2-hydroxyethyl)amino)phenyl)-5,7-dimethoxypyrido[2,3-d]pyrimidin-4(3H)-one]
- Inhibition of IL-6 expression [1]: Active

Compound: COc1cc(OC)c2c(=O)[nH]c(-c3ccc(N4CCC(NS(C)(=O)=O)CC4)cc3)nc2c1 [N-(1-(4-(5,7-Dimethoxy-4-oxo-3,4-dihydroquinazolin-2-yl)phenyl)piperidin-4-yl)methanesulfonamide]
- Inhibition of IL-6 expression [1]: Active

Compound: Cc1cc(-c2nc3nc(OC(C)C)cc(OC(C)C)c3c(=O)[nH]2)cc(C)c1OCCN1CCCC1 [2-(3,5-Dimethyl-4-(2-(pyrrolidin-1-yl)ethoxy)phenyl)-5,7-diisopropoxypyrido[2,3-d]pyrimidin-4(3H)-one]
- Inhibition of IL-6 expression [1]: Active

Compound: COc1cc(OC)c2c(=O)[nH]c(-c3ccc(N4CCN(Cc5ccccc5)CC4)cc3)nc2c1 [2-(4-(4-Benzylpiperazin-1-yl)phenyl)-5,7-dimethoxyquinazolin-4(3H)-one]
- Inhibition of IL-6 expression [1]: Active

Compound: COc1cc(OC)c2c(=O)[nH]c(-c3ccc(Nc4ccncc4)cc3)nc2c1 [5,7-Dimethoxy-2-(4-(pyridin-4-ylamino)phenyl)quinazolin-4(3H)-one]
- Inhibition of IL-6 expression [1]: Active

Compound: COc1cc(OC)c2c(=O)[nH]c(-c3ccc(N4CCOCC4)cc3)nc2c1 [5,7-dimethoxy-2-(4-morpholinophenyl)quinazolin-4(3H)-one]
- Inhibition of IL-6 expression [1]: Active
